Measured values: article PMC9145865, “Effects of Rare Phytocannabinoids on the Endocannabinoid System of Human Keratinocytes” (International Journal of Molecular Sciences, 2022)

Key:
Type in all cases: cell-based, human
[1] = test system: CB2; test: qRT-PCR gene expression of CB2; details: HaCaT cells, half-IC50 dose, 24 h, vs. control
Method: (§1) The HaCaT cells were seeded into 6-well plates at a density of 4 × 10^4 per well, incubated overnight and then treated with the selected pCBs (CBG (6.0 µM), CBC (4.0 µM), THCV (9.0 µM) and CBGA (13.0 µM)) for 24 h. The cell pellets were collected and RT-PCR reactions were performed using the RevertAid H Minus First Strand cDNA Synthesis Kit. The relative abundance was assessed via RT quantitative PCR (RT-qPCR) using the SensiFAST SYBR Lo-ROX Kit in an Applied Biosystems 7500 Fast Real-Time PCR System (Life Technologies). To provide the precise quantification of the initial target in each PCR reaction, the amplification plot was examined, as well as the point of early log phase of the product accumulation, which was defined by assigning a fluorescence threshold above the background that was defined as the threshold cycle number or “Ct. Differences” in threshold cycle number that was used to quantify the relative amount of the PCR targets that were contained within each tube. After PCR, a dissociation curve (melting curve) was constructed in the range of 60 °C to 95 °C [62] to evaluate the specificity of the amplification products. The relative expression of the different amplicons was calculated using the delta–delta Ct (ΔΔCt) method and then converted into the relative expression ratio (2^−ΔΔCt) for statistical analysis. All data were normalized to the endogenous reference genes β-actin and glyceraldehyde-3-phosphate dehydrogenase. The specific primers (Table 5) that were used were designed and ordered from Integrated DNA Technologies (IDT; Coralville, IA, USA) with the following sequences: […]

[2] = test system: PPARγ; test: qRT-PCR gene expression of PPARγ; details: HaCaT cells, half-IC50 dose, 24 h, vs. control
Method: as §1

[3] = test system: FAAH; test: Western blot protein expression of FAAH; details: HaCaT cells, half-IC50 dose, 24 h, vs. control
Method: (§2) The HaCaT cells were seeded into 6-well plates at a density of 4 × 10^4 per well, incubated overnight and then treated with the selected pCBs (6.0 µM of CBG, 4.0 µM of CBC, 9.0 µM of THCV and 13.0 µM of CBGA) for 24 h. The cell pellets were collected and then lysed in an ice-cold lysis buffer (10 mM of EDTA, 50 mM of pH 7.4 Tris–HCl, 150 mM of sodium chloride, 1% Triton-X-100, 2 mM of phenylmethylsulfonyl fluoride, 2 mM of sodium orthovanadate, […] of leupeptin and […] of aprotinin). The amount of protein was determined using the Bio-Rad Protein assay (Bio-Rad Laboratories, Hemel Hempstead, UK). An equal amount of protein (60 µg) was loaded onto 10% sodium dodecyl sulfate–polyacrylamide gels and blotted onto polyvinylidene fluoride sheets (Amersham Biosciences, Piscataway, NJ, USA). The membranes were blocked with dried 5% non-fat milk for 1 h and then incubated with suitable primary antibodies. Detection was performed using Azure Biosystems c400 (Dublin, CA, USA). The membranes were stripped using the Restore Western Blot Stripping Buffer from Thermo Fisher Scientific (Waltham, MA, USA) for 30 min under agitation at room temperature, according to the manufacturer’s instructions. The primary antibodies (Table 6) that were used were obtained from the following sources: […]

[4] = test system: CB1; test: qRT-PCR gene expression of CB1; details: HaCaT cells, half-IC50 dose, 24 h, vs. control
Method: as §1

[5] = test system: HaCaT cells; test: Apoptosis, DNA fragmentation ELISA; details: 24 h
Method: The HaCaT cells were seeded into 96-well plates at a density of 1 × 10^4 per well, incubated overnight and then treated with the selected pCBs at different concentrations (0.5 μM, 1.0 μM, 2.5 μM, 5.0 μM, 10 μM and 25 μM) for 24 h. After treatment, apoptotic cell death was quantified for specific compounds using ELISA assays, which were based on the evaluation of DNA fragmentation through an immunoassay for histone-associated DNA fragments in the cell cytoplasm. The specific determination of mono- and oligonucleosomes in the cytoplasmic fraction of cell lysates was performed by measuring the absorbance values at 405 nm, as reported in [60].

[6] = test system: DAGLα; test: Western blot protein expression of DAGLα; details: HaCaT cells, half-IC50 dose, 24 h, vs. control
Method: as §2

[7] = test system: MAGL; test: Western blot protein expression of MAGL; details: HaCaT cells, half-IC50 dose, 24 h, vs. control
Method: as §2

[8] = test system: CB1; test: Western blot protein expression of CB1; details: HaCaT cells, half-IC50 dose, 24 h, vs. control
Method: as §2

[9] = test system: NAPE-PLD; test: NAPE-PLD activity assay in homogenates of treated cells; details: HaCaT cells, half-IC50 amount, 24 h, vs. control
Method: NAPE-PLD: The HaCaT cells were seeded into 6-well plates at a density of 4 × 10^4 per well, incubated overnight and then treated with the selected pCBs (6.0 µM of CBG, 4.0 µM of CBC, 9.0 µM of THCV and 13.0 µM of CBGA) for 24 h. The cell pellets were collected and NAPE-PLD activity was determined in the homogenates of the cells after 24 h of treatment with each pCB. Then, the homogenates were incubated in a reaction mixture that contained 50 mM of Tris–HCl, 0.05% Triton X-100 pH 8.0 and 10 µM of fluorogenic substrate PED6 (N-((6-(2,4-Dinitrophenyl)amino)hexanoyl)-2(4,4-Difluoro-5,7-Dimethyl-4-Bora-3a,4a-Diaza-s-Indacene-3-Pentanoyl)-1-Hexadecanoyl-sn-Glycero-3 Phosphoethanolamine, Triethylammonium Salt). The homogenates were pre-incubated with the specific NAPE-PLD inhibitor ARN19874 at 3.8 mM [65] (Cayman Chemical, Ann Arbor, MI, USA) for 30 min at room temperature in order to fully erase the enzyme activity as a control. Fluorescence values were measured with excitation at λ = 485–488 nm and emission at λ = 530 nm at 37 °C by means of continuity kinetics at 30-sec intervals for 30 min in an Enspire multimode plate reader (Perkin Elmer, Waltham, MA, USA), as reported in [66]. NAPE-PLD activity was expressed as florescence intensity (arbitrary units, AU) per min per mg of protein.

| Structure (SMILES) | Gene Expression CB2 [1] | gene expression of CB2 (in words) [1] | Gene Expression PPARγ [2] | gene expression of PPARγ (in words) [2] | FAAH protein expression (in words) [3] | Gene Expression CB1 [4] | gene expression of CB1 (in words) [4] | DNA fragmentation (hallmark of apoptosis) ([5]; 10 µM) | DNA fragmentation (hallmark of apoptosis) ([5]; 25 µM) | DAGLα protein expression (in words) [6] | Protein Expression DAGLα [6] | MAGL protein expression (in words) [7] | Protein Expression MAGL [7] | Protein Expression FAAH [3] | CB1 protein expression (in words) [8] | Protein Expression CB1 [8] | activity of NAPE-PLD [9] | DNA fragmentation (hallmark of apoptosis) ([5]; all doses (0.5-25 µM)) |
| --- | --- | --- | --- | --- | --- | --- | --- | --- | --- | --- | --- | --- | --- | --- | --- | --- | --- | --- |
| CCCCCc1cc(O)c2c(c1)OC(C)(CCC=C(C)C)C=C2 (stereo not shown) [CBC, cannabichromene] | ↓++ | significantly downregulated | ↓++ | reduced | significantly increased | ↓++++ | significantly downregulated | – | – | – | – | – | – | – | – | – | – | – |
| CCCCCc1cc(O)c(C/C=C(\C)CCC=C(C)C)c(O)c1 [CBG, cannabigerol] | – | significantly upregulate | – | – | – | ↑++++ | significantly upregulate | induced the same effect | significant increase | – | – | – | – | – | – | – | – | – |
| CCCCCc1cc(O)c(C/C=C(\C)CCC=C(C)C)c(O)c1C(=O)O [CBGA, cannabigerolic acid] | – | – | – | – | significantly increased | – | – | – | significant increase | increased | NAPE-PLD ↑++++ FAAH ↑++++ DAGLα ↑++++ MAGL ↑++++ | increased | NAPE-PLD ↑++++ FAAH ↑++++ DAGLα ↑++++ MAGL ↑++++ | NAPE-PLD ↑++++ FAAH ↑++++ DAGLα ↑++++ MAGL ↑++++ | significantly reduced | ↓++++ | significantly increased | – |
| CCCc1cc(O)c2c(c1)OC(C)(C)[C@@H]1CCC(C)=C[C@@H]21 [THCV, Δ^9-tetrahydrocannabivarin] | – | – | ↓++++ | significantly reduced | – | – | – | – | – | increased | ↑+++ | increased | ↑++++ | – | significantly reduced | ↓+ | – | ineffective |
